The subject of data set [1] is murine syngeneic lymphoma model A20. The settings on record: mouse, in vivo, po, 50 mg/kg.
Experimental: (§1) KLN205) or three (CT26 and MC38 study 1) or only one (MC38 study 2) different combination schedules were tested:
(§2) The oral application volume was 10 ml/kg and the intravenous application volume 5 ml/kg. The time interval between two applications per day was 6-7 h. The tumor size and the body weight were determined three times weekly. Changes in the body weight were a measure of treatment-related toxicity (>10%=critical, stop of treatment until recovery, >20%=toxic, termination). The tumor volume was detected by means of an electronic caliper gauge [0.5×length in mm×(width in mm)^2]. Animals for which the tumor volume exceeded 2000 mm^3 (or for which the mean tumor volume of the group exceeds 2000 mm^3) were euthanized. In vivo anti-tumor efficacy is presented as T/C ratio (Treatment/Control) calculated with tumor volumes at day of control group termination by the formula [(tumor volume of treatment group at day x)−(tumor volume of treatment group at day before first treatment)]/[(tumor volume control group at day x)−(tumor volume of control group at day before first treatment)]. […] Statistical analysis was assessed using SigmaStat software. A one-way analysis of variance was performed and differences to the control were compared by a pair-wise comparison procedure (Dunn's method).
Data set [2] concerns murine syngeneic lung carcinoma model KLN205. Particulars: mouse, in vivo.
Experimental: as §1, §2
For data set [3], the system named is murine syngeneic colon carcinoma model CT26. The settings on record: mouse, in vivo, po, 50 mg/kg.
Experimental: as §1, §2

On to `C[C@@H]1COCCN1c1cc(-c2ccnn2C)c2ccnc(-c3ccn[nH]3)c2n1` [Compound A, 2-[(3R)-3-methylmorpholin-4-yl]-4-(1-methyl-1H-pyrazol-5-yl)-8-(1H-pyrazol-5-yl)-1,7-naphthyridine], for which the “Max. weight loss (%)” value was −2% in data set [1], −19 (d9) % in data set [2] and −1% in data set [3]. The “body weight loss (in words)” value in data set [2] is “critical body weight loss”.
